Data published in patent US20130089536A1, “PHARMACEUTICAL COMPOSITION TO PREVENT AND TREAT ALZHEIMER'S DISEASE COMPRISING GCP II MUTANT” (KOREA CENTER FOR DISEASE CONTROL AND PREVENTION, priority 2011, published 2013).
Entries after “also recorded” stand apart in the source; their conditions may differ.

Legend:
[1] = NAAG hydrolysis by GCP II mutants, lysate of transfected H4 cells; format: biochemical; conditions: H4 cell lysate, [3H]-labeled NAAG 20 μM, FIG. 3a
Protocol: The inventors of the present invention also investigated the changes of enzyme activity of GCP II mutant. To analyze enzyme activity of various mutants, mutant proteins with a substitution in the S1′ pocket (R210A, K699S) or S1 pocket (R536L, G548P) were transfected in H4 cells. To measure NAAG hydrolysis, cell lysate was incubated with [H]^3-labeled NAAG (20 μM) and GCP II specific […]. […] Additionally, to examine the effect of Aβ on NAAG cleavage of GCP II, rhGCP II was incubated with [H]^3-labeled NAAG (20 μM) and Aβ peptides at the same time. As a result, NAAG cleavage activity of GCP II was not affected by Aβ peptide (see FIG. 3b).
The activity of endogenous or over-expressed Glutamate carboxypeptidase II protein (GCP II) was measured as follows. Cell lysate (50 μg) was incubated with 20 μM of N-acetyl-L-aspartyl-L-[3,4-3H] glutamate (NAAG; NEN corporation) with or without 20 nM 2-PMPA, a GCP II specific inhibitor, in a total volume of 100 μl containing 50 mM HEPES and 150 mM NaCl for 1 hr at 37° C. Upon completion of the reaction, sample mixture was loaded on AG 1-X8 anion-exchange resin (Biorad) prepared in 96 well columns, followed by centrifugation at 2000 rpm for 5 min. […] All the eluted samples were mixed with 1 ml of scintillation solution (Optiphase HiSafe; Wallac) and then radioactivity was measured by scintillation counter (Wallac Inc.). […]

Aβ [2] = assay: Aβ clearance activity of GCP II mutants, lysate of transfected PC3 cells, dot blotting and western blotting (6E10); format: biochemical; conditions: cell lysate 48 hr after transfection, Aβ 2 μM, overnight, FIGS. 4a, 4b
Protocol: (§1) To identify Aβ clearance activity of GCP II mutants, various mutant plasmids were transfected in PC3 cells known not to express endogenous GCP II. After 48 hr, the cell lysates were mixed with Aβ (2 μM) and incubated for overnight. The remaining Aβ peptides were detected by dot blotting and western blotting using 6E10 antibody. […] The inventors of the present invention also measured cleavage activity of GCP II on exogenously treated Aβ peptides in culture medium by ELISA. One day after transfection, 1 ng/ml Aβ was treated into the medium, followed by incubation for 8 hr at 37° C. Similarly with western blotting, residual Aβ was reduced by K699S but not by G548P (see FIG. 4c).
48 hrs later, the cell lysate was mixed with Aβ (2 μM) and incubated for overnight.
To quantify the remaining Aβ peptides, the mixture of cell lysate and Aβ (2 μM) proceeded to dot blotting and the result was analyzed by the same manner as described in Example <2-2>. 1 μl of the mixture of cell lysate and Aβ (2 μM) was dropped on nitrocellulose membrane, which was then completely dried. The dried membrane proceeded to blocking with TBS-T containing 5% nonfat dry milk at room temperature for 1 hr. Then, the membrane was incubated with anti-Aβ antibody, 6E10 (SIGNET; SIG-39300, 1:2000) in 5% nonfat dry milk at 4° C. for overnight. […] After washing three times, proteins were detected using chemiluminescent substrate.

Aβ [3] = assay: Cleavage of exogenously treated Aβ in culture medium of transfected cells, ELISA; format: cell-based; conditions: 1 ng/ml Aβ one day after transfection, 8 hr at 37° C., FIG. 4c
Protocol: as §1
Vectors encoding the hGCP II and various mutant hGCP II genes were transfected into PC3 cells in a 12-well plate. About 30 hr later, the culture medium was changed with fresh one treated with Aβ1-40 of Aβ1-42 peptide in the presence or absence of 2-PMPA, and the cells were incubated for another 8 hr. The medium was collected and assayed for residual Aβ1-40 or Aβ1-42 using ELISA kits (Invitrogen) following manufacturer's protocol. Cells transfected with the empty pcDNA3 empty vector were used as the negative control. […]

Aβ1-40 = Aβ1-40 cleavage by rhGCP II, residual Aβ by ELISA; format: biochemical; conditions: rhGCP II incubated with Aβ1-40, FIG. 1a
Protocol: (§2) (a, b) rhGCP II was incubated with Aβ40 or NAAG with or without 2-PMPA or EDTA. A(340 or NAAG level was detected by ELISA or NAAG cleavage assay. (c) After lentiviral GCP II was infected into rat primary astrocytes, monomeric Aβ40 was treated to cells. And 2-PMPA was treated thereto at various doses. The Aβ40 concentration in cell growth medium was measured by ELISA assay. (d, e) Eight-month old APP Swedish/PS1E9 transgenic mice were injected intraperitoneally with 10 mg/kg of 2-PMPA or PBS 2/wk for 1 month (9 times). Membrane fractions were analyzed by NAAG and ELISA assay.
As a result, rhGCP II cleaved Aβ1-40 peptides about 80 percent compared with the control, but 2-PMPA had no effect on Aβ1-40 cleavage of GCP II (see FIG. 1a). […] To investigate the effect of 2-PMPA in the mouse brain, 2-PMPA was treated into transgenic AD model mice. The inventors of the present invention used 2-PMPA (10 mg/kg, intraperitoneally, 2×/wk for 1 month) to treat 8-month old APP Swedish/PS1Δ9 transgenic mice. Aβ1-40 and Aβ1-42 levels in the cortical membrane fractions were analyzed by ELISA and NAAG cleavage activity of GCP II was measured by NAAG assay. As a result, cleavage of NAAG was reduced about 90 percent in 2-PMPA treated mouse compared with PBS control (see FIG. 1d). However, total levels of Aβ1-40 and Aβ1-42 were not changed by the treatment of 2-PMPA (see FIG. 1e). […]

[4] = target: recombinant human GCPII (rhGCP II) (Homo sapiens, UniProt Q04609); assay: Effect of 2-PMPA on Aβ1-40 cleavage of rhGCP II (ELISA); format: biochemical; conditions: 2-PMPA added at different concentrations, FIG. 1a
GCP II = GCP II (Homo sapiens, UniProt Q04609); assay: NAAG cleavage assay with or without 2-PMPA; format: biochemical; conditions: 20 μM [3H]NAAG, 20 nM 2-PMPA, 1 hr at 37° C.; FIG. 1b
Protocol: The activity of endogenous or over-expressed Glutamate carboxypeptidase II protein (GCP II) was measured as follows. Cell lysate (50 μg) was incubated with 20 μM of N-acetyl-L-aspartyl-L-[3,4-3H] glutamate (NAAG; NEN corporation) with or without 20 nM 2-PMPA, a GCP II specific inhibitor, in a total volume of 100 μl containing 50 mM HEPES and 150 mM NaCl for 1 hr at 37° C. Upon completion of the reaction, sample mixture was loaded on AG 1-X8 anion-exchange resin (Biorad) prepared in 96 well columns, followed by centrifugation at 2000 rpm for 5 min. The resin bound with the sample mixture was eluted with 0.5 mM formate (100 ml) and centrifuged at 2000 rpm for 5 min. All the eluted samples were mixed with 1 ml of scintillation solution (Optiphase HiSafe; Wallac) and then radioactivity was measured by scintillation counter (Wallac Inc.).

lentiviral GCP II = target: T1, lentiviral GCP II (Homo sapiens, UniProt Q04609); format: cell-based
T1 construct: host or cells: rat primary astrocytes (lentiviral infection)

Aβ1-40 and Aβ1-42 = Aβ1-40 and Aβ1-42 levels in cortical membrane fractions of 2-PMPA treated APP Swedish/PS1ΔE9 transgenic mice (ELISA); format: in vivo, mouse; conditions: 10 mg/kg intraperitoneally, 2×/wk for 1 month, 8-month old APP Swedish/PS1ΔE9 mice, FIG. 1e
Protocol: as §2
Vectors encoding the hGCP II and various mutant hGCP II genes were transfected into PC3 cells in a 12-well plate. About 30 hr later, the culture medium was changed with fresh one treated with Aβ1-40 of Aβ1-42 peptide in the presence or absence of 2-PMPA, and the cells were incubated for another 8 hr. […]
To investigate the effect of 2-PMPA in the mouse brain, 8-month old APP Swedish/PS1Δ9 mice transfected by the same manner as described in Example <1-6> were treated nine times with 2-PMPA (10 mg/kg, intraperitoneally, 2/wk for 1 month) or the same amount of PBS. Aβp1-40 and Aβ1-42 levels in the cortical membrane fractions were analyzed by the same manner as described in Example <1-3>. NAAG cleavage activity of GCP II was measured by the same manner as described in Example <1-4>.

T1 sequence (Q04609 whole entry): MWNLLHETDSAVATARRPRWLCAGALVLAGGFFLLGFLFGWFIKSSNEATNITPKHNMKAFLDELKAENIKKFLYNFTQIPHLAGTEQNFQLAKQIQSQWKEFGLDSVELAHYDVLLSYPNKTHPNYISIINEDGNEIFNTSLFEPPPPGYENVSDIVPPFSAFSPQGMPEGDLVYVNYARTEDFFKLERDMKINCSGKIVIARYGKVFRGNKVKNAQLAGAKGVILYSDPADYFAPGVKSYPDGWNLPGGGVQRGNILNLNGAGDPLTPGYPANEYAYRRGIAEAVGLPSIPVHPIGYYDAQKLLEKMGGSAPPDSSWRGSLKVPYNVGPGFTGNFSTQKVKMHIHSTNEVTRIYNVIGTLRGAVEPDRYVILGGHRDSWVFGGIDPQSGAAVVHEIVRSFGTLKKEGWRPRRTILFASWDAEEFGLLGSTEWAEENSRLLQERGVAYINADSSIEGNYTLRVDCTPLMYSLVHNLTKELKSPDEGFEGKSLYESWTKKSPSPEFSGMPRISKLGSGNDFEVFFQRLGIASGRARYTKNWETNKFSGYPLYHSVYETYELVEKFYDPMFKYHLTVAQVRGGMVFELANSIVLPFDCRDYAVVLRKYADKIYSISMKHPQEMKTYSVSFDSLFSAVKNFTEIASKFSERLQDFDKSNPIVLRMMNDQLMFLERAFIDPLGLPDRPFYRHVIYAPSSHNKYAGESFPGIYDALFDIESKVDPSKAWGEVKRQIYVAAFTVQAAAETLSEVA
Sequence of GCP II (Q04609 whole entry): as above
Sequence of recombinant human GCPII (rhGCP II) (Q04609 whole entry): as above

Compound: G548P: GCP II mutant protein with a substitution in the S1 pocket
- activity of NAAG hydrolysis maintained compared with wild type GCP II ([1]; listed as R548P): about 40%
- Aβ cleavage activity compared with wild type (Aβ [2]): lost Aβ cleavage activity; also recorded: did not; also recorded: lost its Aβ clearance activity
- residual Aβ in culture medium (Aβ [3]): not

Compound: K699S: GCP II mutant: 699th amino acid Lysine replaced with Serine, SEQ ID. NO: 2; S1′ pocket mutant
- activity of NAAG hydrolysis (in words) [1]: completely lost; also recorded: did not cleave
- Aβ cleavage activity compared with wild type (Aβ [2]): higher Aβ cleavage activity than the wild type; also recorded: cleaved; also recorded: cleaved Aβ more than wild type
- residual Aβ in culture medium (Aβ [3]): reduced

Compound: rhGCP II: recombinant human GCPII (glutamate carboxypeptidase II), wild type
- Aβ1-40 peptide cleaved compared with control (Aβ1-40): about 80%

Compound: O=C(O)CCC(CP(=O)(O)O)C(=O)O (stereo not drawn) [2-PMPA, 2-(Phosphonomethyl) pentanedioic acid]
- effect on Aβ1-40 cleavage of rhGCP II [4]: no effect
- hydrolysis of NAAG by GCP II (GCP II): completely blocked
- Aβ1-40 cleavage of lentiviral GCP II (lentiviral GCP II): did not block
- total level of Aβ1-40 (Aβ1-40 and Aβ1-42): not changed
- total level of Aβ1-42 (Aβ1-40 and Aβ1-42): not changed
